According to patent US20220117964A1, “COMBINATION OF FAK INHIBITOR AND BTK INHIBITOR FOR TREATING A DISEASE” (ASCENTAGE PHARMA (SUZHU) CO., LTD., priority 2019, published 2022):

Key:
YES-2 cells = experiment: Colony formation assay; type: cell-based; conditions: 0.5 μM Compound 5, 0.25 μM Ibrutinib or both, 12 days
Experimental: (§1) Growth inhibition was detected by colony formation assay. ESCC cells were inoculated in 6-well plates at about 500 cells/well, and treated with different inhibitors or DMSO, and then replaced with fresh medium containing with different inhibitors or DMSO every 3 to 4 days. The cells were stained with crystal violet (V5265, Sigma, St Louis, Mo., USA) on day 12. After washing twice with PBS, the cells were fixed with 1% paraformaldehyde and incubated for 15 minutes at room temperature. The cells were then washed twice with PBS and stained with 0.5% crystal violet for 15 minutes at room temperature.
(§2) (1) The experimental method was as described in the items (1), (2), (5) of Example 2. […] The changes in signaling pathway of related proteins were determined by Western blotting assay.

[1] = tested on: phosphorylated-AKT (p-AKT, Ser397); experiment: Western blot, KYSE-150 and KYSE-520 cells; type: cell-based; conditions: KYSE-150 (1 μM Compound 5, 1 μM Ibrutinib) and KYSE-520 (1 μM Compound 5, 0.5 μM Ibrutinib), 24 hours
Experimental: The cells were lysed on ice with 1× cell lysis buffer containing 1% protease inhibitor (PMSF) and 1% phosphokinase inhibitor for 30 minutes, centrifuged at 12000 rpm and 4° C. for 15 minutes, and the supernatant protein lysate was collected. The protein concentration was measured by BCA protein concentration detection kit. The cell protein lysates (20 to 50 μg) were separated using 8-12% SDS-PAGE electrophoresis. The separated proteins were transferred to a PVDF membrane. The PVDF membrane was blocked with 5% BSA buffer at room temperature for 30 minutes to 1 hour, and then incubated overnight on a 4° C. shaker with 1× TBST containing primary antibody. The redundant primary antibody was eluted, and the membrane was washed 3 times with 1× TBST, 5 to 10 minutes for each time. The protein band membrane was incubated with horseradish peroxidase-labeled secondary antibody dilution for 1 hour at room temperature, and the membrane was washed 3 times with 1× TBST, 5 to 10 minutes for each time. The signal generation and detection were performed using an ECL chemiluminescence ultrasensitive colorimetric kit and a chemiluminescence imaging system. […]
as §2

KYSE-150 cells = experiment: Colony formation assay; type: cell-based, human; conditions: 1 μM Compound 5, 1 μM Ibrutinib or both, 12 days
Experimental: as §1, §2

## Cc1cc(Nc2ncc(Cl)c(Nc3ccccc3S(=O)(=O)C(C)C)n2)c(OC(C)C)cc1C1=CCN(C2CCOCC2)CC1 [Compound 5, 5-chloro-N^2-(2-isopropoxy-5-methyl-4-(1-(tetrahydro-2H-pyran-4-yl)-1,2,3,6-tetrahydropyridin-4-yl)phenyl)-N^4-(2-(isopropylsulfonyl)phenyl)pyrimidine-2,4-diamine]
YES-2 cells
  inhibitory effect on cell clone formation: stronger inhibitory effects
[1]
  protein expression level of phosphorylated-AKT (p-AKT, Ser397): significantly decrease
KYSE-150 cells
  inhibitory effect on cell clone formation: stronger inhibitory effects
